# Reference: ChEMBL document CHEMBL1131747, “Derivation of a possible transition-state for the reaction catalysed by the enzyme estrone Sulfatase (ES)” (Bioorg Med Chem Lett, 1999)
# Target: T1, Steryl-sulfatase (Homo sapiens, UniProt P08842)
# T1 sequence (P08842 whole entry): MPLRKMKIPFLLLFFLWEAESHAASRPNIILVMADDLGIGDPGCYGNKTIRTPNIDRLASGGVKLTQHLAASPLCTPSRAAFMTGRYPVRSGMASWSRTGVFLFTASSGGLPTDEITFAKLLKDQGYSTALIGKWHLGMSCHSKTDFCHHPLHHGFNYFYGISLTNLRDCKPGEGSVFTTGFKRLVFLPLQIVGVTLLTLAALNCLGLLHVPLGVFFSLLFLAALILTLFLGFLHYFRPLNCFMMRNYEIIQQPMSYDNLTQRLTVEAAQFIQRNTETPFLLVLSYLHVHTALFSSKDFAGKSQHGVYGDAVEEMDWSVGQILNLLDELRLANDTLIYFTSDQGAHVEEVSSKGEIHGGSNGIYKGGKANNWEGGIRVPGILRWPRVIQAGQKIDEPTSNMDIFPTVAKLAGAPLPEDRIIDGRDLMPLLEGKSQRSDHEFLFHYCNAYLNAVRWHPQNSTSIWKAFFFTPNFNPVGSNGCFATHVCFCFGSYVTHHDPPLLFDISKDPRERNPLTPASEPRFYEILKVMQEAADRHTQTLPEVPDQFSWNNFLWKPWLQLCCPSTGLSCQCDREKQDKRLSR
# Experiment: Inhibitory activity against estrone sulfatase enzyme
row,IC50,SMILES
1,55.8 nM,CCCCCCCCCCCCCC(=O)NCCc1ccc(OS(N)(=O)=O)cc1
2,1000 nM,NS(=O)(=O)Oc1ccc2c(c1)CCCC2

row,SMILES,IC50
1,"C[C@]12CC[C@@H]3c4ccc(OS(N)(=O)=O)cc4CCC3[C@@H]1CCC2=O (single isomer, unassigned) [EMATE]",0.065 nM
